Experimental data as given in ChEMBL document CHEMBL2203037, “Synthesis and Anti-influenza A Virus Activity of 2,2-Dialkylamantadines and Related Compounds” (ACS Med Chem Lett, 2012).
Activity calls are given as the source filed them. No cut-off for these calls is given here.

What was measured:
Vaccinia virus = assay: Antiviral activity against Vaccinia virus by cell based assay; assay type: functional, organism-based; conditions: Orthopoxvirus vaccinia
H3N2 subtype [1] = assay: Antiviral activity against Influenza A virus (A/HK/7/87 (H3N2)) infected in MDCK cells assessed as virus-induced cytopathic effect measured 3 days post infection by microscopic analysis; assay type: functional, organism-based; conditions: A/Hong Kong/7/1987(H3N2), 72 h
Simplexvirus = assay: Antiviral activity against Herpes simplex virus by cell based assay; assay type: functional, organism-based
[2] = system: Vesicular stomatitis virus; assay: Antiviral activity against Vesicular stomatitis virus by cell based assay; assay type: functional, organism-based
Coxsackievirus B4 = assay: Antiviral activity against Coxsackievirus B4 by cell based assay; assay type: functional, organism-based
Sindbis virus = assay: Antiviral activity against Sindbis virus by cell based assay; assay type: functional, organism-based
H3N2 subtype [3] = assay: Antiviral activity against Influenza A virus (A/HK/7/87 (H3N2)) infected in MDCK cells assessed as virus-induced cytopathic effect by MTS assay; assay type: functional, organism-based, A/Hong Kong/7/1987(H3N2)
[4] = Cytotoxicity against dog MDCK cells assessed as cell viability after 72 hrs by MTS assay; assay type: cell-based, Canis lupus familiaris
[5] = system: Mammalian orthoreovirus 1; assay: Antiviral activity against Reovirus-1 by cell based assay; assay type: functional, organism-based
Human respirovirus 3 = assay: Antiviral activity against Parainfluenza-3 virus by cell based assay; assay type: functional, organism-based
[6] = system: Respiratory syncytial virus; assay: Antiviral activity against Respiratory syncytial virus by cell based assay; assay type: functional, organism-based
[7] = Cytotoxicity against dog MDCK cells assessed as cell morphology alterations; assay type: cell-based, Canis lupus familiaris
Feline coronavirus = assay: Antiviral activity against Feline coronavirus by cell based assay; assay type: functional, organism-based
Punta Toro virus = assay: Antiviral activity against Punta Toro virus by cell based assay; assay type: functional, organism-based
Influenza A virus [8] = assay: Antiviral activity against Influenza A virus (A/X-31(H3N2)) infected in MDCK cells assessed as virus-induced cytopathic effect measured 3 days post infection by microscopic analysis; assay type: functional, organism-based
Influenza A virus [9] = assay: Antiviral activity against amantadine-sensitive Influenza A virus (A/Ned/378/05 (H1N1)) infected in MDCK cells assessed as virus-induced cytopathic effect measured 3 days post infection by microscopic analysis; assay type: functional, organism-based; conditions: 72 h
Influenza A virus [10] = assay: Antiviral activity against amantadine-sensitive Influenza A virus (A/FM/1/47 (H1N1)) infected in MDCK cells assessed as virus-induced cytopathic effect measured 3 days post infection by microscopic analysis; assay type: functional, organism-based; conditions: A/Fort Monmouth/1/1947(H1N1), 72 h
Influenza A virus [11] = assay: Antiviral activity against Influenza A virus (A/Ishikawa/7/82 (H3N2)) infected in MDCK cells assessed as virus-induced cytopathic effect measured 3 days post infection by microscopic analysis; assay type: functional, organism-based
[12] = Influenza A virus, A/Hong Kong/7/1987(H3N2), MDCK
[13] = Influenza A virus, A/Ishikawa/7/82 (H3N2), MDCK, 72 h

Structure (SMILES) | Activity (Vaccinia virus) | EC50 (H3N2 subtype [1]) [µM] | Activity (Simplexvirus) | Activity [2] | Activity (Coxsackievirus B4) | Activity (Sindbis virus) | EC50 (H3N2 subtype [3]; [12]) [µM] | CC50 at 72 h [4] [µM] | Activity [5] | Activity (Human respirovirus 3) | Activity [6] | MCC [7] [µM] | Activity (Feline coronavirus) | Activity (Punta Toro virus) | EC50 (Influenza A virus [10]) [µM] | other results
CC(C)C1C2CC3CC(C2)CC1(N(C)C)C3 (configuration not stated) | inactive | > 100 | inactive | inactive | inactive | inactive | > 100 | ≥ 100 | inactive | inactive | inactive | > 100 | inactive | inactive | – | –
CCC1(CC)C2CC3CC(C2)CC1(N)C3 | inactive | > 100 | inactive | inactive | inactive | inactive | – | > 100 | inactive | inactive | inactive | ≥ 100 | inactive | inactive | 7 | EC50 (Influenza A virus [8]; Influenza A virus, MDCK, 72 h): > 100 µM; EC50 (Influenza A virus [9]): 4.7 µM; EC50 (H3N2 subtype [3]; mdck): > 100 µM; EC50 (Influenza A virus [11]; [13]): > 100 µM
CC(N)C12CC3CC(CC(C3)C1)C2 (configuration not stated) [RIMANTADINE] | – | 0.17 | – | – | – | – | – | > 100 | – | – | – | ≥ 100 | – | – | 1.9 | EC50 (Influenza A virus [8]; mdck): 7 µM; EC50 (Influenza A virus [9]): 0.5 µM; EC50 (Influenza A virus [11]; [13]): 0.45 µM
CC1(C)C2CC3CC(C2)CC1(N)C3 | inactive | > 100 | inactive | inactive | inactive | inactive | > 100 | 77 | inactive | inactive | inactive | 167 | inactive | inactive | – | –
NC12CC3CC(CC(C3)C13CCCCC3)C2 | inactive | > 100 | inactive | inactive | inactive | inactive | > 100 | 4.7 | inactive | inactive | inactive | 6 | inactive | inactive | – | –
CC1(C)C2CC3CC(C2)CC1(NCc1ccccc1)C3 | inactive | > 100 | inactive | inactive | inactive | inactive | > 100 | 1.1 | inactive | inactive | inactive | 4 | inactive | inactive | – | –
CN(C)C12CC3(C)CC(CC3(C)C1)C2(C)C | inactive | > 100 | inactive | inactive | inactive | inactive | > 100 | > 100 | inactive | inactive | inactive | ≥ 100 | inactive | inactive | – | –
CCCC1(CCC)C2CC3CC(C2)CC1(N)C3 | inactive | > 100 | inactive | inactive | inactive | inactive | > 100 | 2.9 | inactive | inactive | inactive | 6 | inactive | inactive | – | –
CCOC(=O)C1=C[C@@H](OC(CC)CC)[C@H](NC(C)=O)[C@@H](N)C1 [OSELTAMIVIR] | – | 29 | – | – | – | – | – | – | – | – | – | > 100 | – | – | 16 | EC50 (Influenza A virus [8]; Influenza A virus, MDCK, 72 h): 0.11 µM; EC50 (Influenza A virus [9]): 1.5 µM; EC50 (Influenza A virus [11]; [13]): 3 µM
CCNC12CC3CC(CC(C3)C1(C)C)C2 | inactive | > 100 | inactive | inactive | inactive | inactive | > 100 | 85 | inactive | inactive | inactive | 200 | inactive | inactive | – | –
CC12CC3CC1(C)CC(N)(C2)C3(C)C | inactive | > 100 | inactive | inactive | inactive | inactive | > 100 | > 100 | inactive | inactive | inactive | ≥ 100 | inactive | inactive | – | –
CCCC1(CCC)C2CC3CC(C2)CC1(N(C)C)C3 | inactive | > 100 | inactive | inactive | inactive | inactive | > 100 | > 100 | inactive | inactive | inactive | ≥ 100 | inactive | inactive | – | –
CC(C)C1C2CC3CC(C2)CC1(N)C3 (configuration not stated) | inactive | > 100 | inactive | inactive | inactive | inactive | > 100 | 8.6 | inactive | inactive | inactive | 5.3 | inactive | inactive | – | –
CC(=O)N[C@H]1[C@H]([C@H](O)[C@H](O)CO)OC(C(=O)O)=C[C@@H]1NC(=N)N [ZANAMIVIR] | – | 1.2 | – | – | – | – | – | – | – | – | – | > 200 | – | – | 5 | EC50 (Influenza A virus [8]; mdck): 0.16 µM; EC50 (Influenza A virus [9]): 1.7 µM; EC50 (Influenza A virus [11]; [13]): 8.7 µM
NC12CC3CC(CC(C3)C1)C2 [AMANTADINE] | – | 3.4 | – | – | – | – | – | > 100 | – | – | – | 500 | – | – | 5.1 | EC50 (Influenza A virus [8]; mdck): 61 µM; EC50 (Influenza A virus [11]; [13]): 11 µM
CNC12CC3CC(CC(C3)C1(C)C)C2 | inactive | > 100 | inactive | inactive | inactive | inactive | > 100 | 70 | inactive | inactive | inactive | 110 | inactive | inactive | – | –
CN(C)C12CC3CC(CC(C3)C1(C)C)C2 | inactive | > 100 | inactive | inactive | inactive | inactive | > 100 | 68 | inactive | inactive | inactive | 110 | inactive | inactive | – | –
NC(=O)c1ncn([C@@H]2O[C@H](CO)[C@@H](O)[C@H]2O)n1 [RIBAVIRIN] | – | 7.7 | – | – | – | – | 7 | ≥ 20 | – | – | – | ≥ 100 | – | – | 10 | EC50 (Influenza A virus [8]; mdck): 8.8 µM; EC50 (Influenza A virus [9]): 7.6 µM; EC50 (Influenza A virus [11]; mdck): 8.8 µM
CN(Cc1ccccc1)C12CC3CC(CC(C3)C1(C)C)C2 | inactive | > 100 | inactive | inactive | inactive | inactive | > 100 | 0.7 | inactive | inactive | inactive | 4 | inactive | inactive | – | –
CC1(C)C2CC3CC(C2)CC1(N1CCCCC1)C3 | inactive | > 100 | inactive | inactive | inactive | inactive | > 100 | 0.8 | inactive | inactive | inactive | 4 | inactive | inactive | – | –
